Residues, ends and D or L forms follow the SMILES beside them.
Key:
[1] = test system: mouse placenta (maternofetal interface); assay type: in vivo, BALB/c mice; conditions: 200 μg, tail vein, cardiac perfusion
[2] = test system: human first-trimester placental explants (CTB)
[3] = test system: human placental explants (syncytiotrophoblast); assay: Peptide-binding assay with human placental explants; assay type: cell-based; conditions: peptide 20 μM, 0 to 3 hours

Q: How did the “accumulation in maternal organs” value ([1]; pregnant mice, 3 hours, confocal microscopy (fig. S1)) turn out when N=C(N)NCCC[C@H](NC(=O)[C@H](CCCCN)NC(=O)CNC(=O)[C@H](CS)NC(=O)c1ccc2c(c1)C(=O)OC21c2ccc(O)cc2Oc2cc(O)ccc21)C(=O)N[C@@H](CCCCN)C(=O)O [FAM-CGKRK] (HELM PEPTIDE1{[O=C1OC2(c3ccc(O)cc3Oc3cc(O)ccc32)c2ccc(C(=O)[*:2])cc21].C.G.K.R.K}$$$$V2.0) was run?
A: Its value is “do not accumulate in maternal organs of pregnant mice”.

Q: Which results are given for “Cys-Arg-Gly-Asp-Lys-Gly-Pro-Asp-Cys (disulfide) [iRGD]”?
A: basal rates of CTB proliferation (Ki67) [2]: did not alter; rate of CTB apoptosis (M30) [2]: modestly reduced

Q: Which “basal rates of CTB proliferation (Ki67)” value [2] does the source give for Cys-Gly-Lys-Arg-Lys [CGKRK] here?
A: The value was “did not alter”.

Q: Which results are given for FAM-ARALPSQRSR [reference compound]?
A: binding to human placenta (first-trimester and term explants) [3]: did not bind to the syncytium of human placenta or to other cellular components; binding at the murine maternofetal interface ([1]; pregnant mice E11.5 to E17.5, 3 hours, fluorescence microscopy, n = 3 placentas from n = 4 mice): did not target the maternofetal interface

From paper PMC4928982 (Science Advances, 2016)
